Measurements taken from US7718385B2, “Bioactivation of alkylating agents for cancer treatment” (priority 2003, dated 2010).

Legend:
recombinant AOR = target: T1, recombinant AOR (Rattus norvegicus, UniProt P97584, Q160G/Q263G/Q264G/Q276G); experiment: LC/MS/MS of enzymatic and nonenzymatic GSH adducts; assay type: biochemical; details: incubations with AOR, GSH and NADPH, 1 h, 37° C.
T1 construct: made in house
Description: High Performance Liquid Chromatography with Tandem Mass Spectrometry (LC/MS/MS) of GSA Adducts. […] These reactions were incubated at 37° C. for 1 h. Controls lacking NAFPH were performed. Reactions were stopped and deproteinized with addition of 400 μl of ice-cold acetonitrile, spun at 3500×g for 10 min at 4° C., and the supernatants were evaporated to dryness under vacuum. Residual GSH and NADPH cofactors were removed using an Oasis C18 sample prep column (Waters Chromatography). Adducts were eluted with methanol, evaporated to dryness under vacuum, resuspended in […] of 0.1% acetic acid, and detected using liquid chromatography electrospray ionization tandem mass spectrometry performed in the positive ion mode. […] A flow rate of 0.1 ml/min and gradient of 0% buffer D (70% acetic acid (0.1%):30% acetonitrile) to 100% buffer E (20% acetic acid (0.1%):80% acetonitrile) over 30 min were used to resolve the compounds. Adducts were detected by monitoring for selected molecular ions or characteristic molecular fragments after MS/MS. Molecular fragments were obtained with 35% relative collusion energy.
Measuring GSH adduction is a commonly used technique for estimating covalent protein binding, and thus cytotoxicity, of a drug (Baillie and Kassahun, 2001). The nucleophilic thiol moiety of GSH effectively scavenges electrophilic molecules and its large size and charge prevent it from entering the active site of most enzymes. […] Daughter ions of adducts, which represent the loss of water (−18 m/z) or […] (−129 m/z), were common and monitored for in these experiments following MS/MS.
Enzymatic reduction occurred in incubations containing recombinant AOR, NADPH, and GSH, while companion nonenzymatic reductions lacked NADPH. […] However the NE irofulven-GSH adduct (FIG. 5B) was detected only after monitoring for a daughter ion (M+—H2)=536 m/z) and was 42-fold less abundant than the E adduct. […] Contrary to findings with irofulven, a great deal of NE illudin M-GSH adduct was detected in NADPH-deficient incubations.

A498 = details: A498, Renal, cited from earlier work
A549/ATCC = details: cited from earlier work

T1 sequence (P97584 whole entry Q160G/Q263G/Q264G/Q276G): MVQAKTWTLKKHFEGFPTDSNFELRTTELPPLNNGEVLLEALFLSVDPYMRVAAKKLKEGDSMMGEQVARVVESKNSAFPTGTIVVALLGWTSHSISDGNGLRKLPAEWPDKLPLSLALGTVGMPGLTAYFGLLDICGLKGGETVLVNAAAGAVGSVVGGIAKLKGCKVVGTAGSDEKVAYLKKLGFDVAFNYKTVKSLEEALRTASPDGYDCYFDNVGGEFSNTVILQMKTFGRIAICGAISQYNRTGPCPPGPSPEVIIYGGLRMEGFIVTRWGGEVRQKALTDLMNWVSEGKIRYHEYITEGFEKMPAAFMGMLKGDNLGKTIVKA

SMILES: CC1=C(CO)C2=C(C)C3(CC3)[C@@](C)(O)C(=O)C2=C1 [Irofulven, 6-hydroxymethylacylfulvene]
- abundance of E (enzymatic) GSH adduct over NE (nonenzymatic) adduct (recombinant AOR): 42 fold
- GI50 (A498): 200 nM
- TGI (A498): 5.01E−07
- log(GI50) (A498): −6.7
- log(LC50) (A498): −5.7
- log(TGI) (A498): −6.3
- CC50 (A498; read-out: LC50): 2000 nM
- GI50 (A549/ATCC; Non-Small Cell Lung): 126 nM
- TGI (A549/ATCC; Non-Small Cell Lung): 1.58E−06
- log(GI50) (A549/ATCC; Non-Small Cell Lung): −6.9
- log(TGI) (A549/ATCC; Non-Small Cell Lung): −5.8
- CC50 (A549/ATCC; read-out: LC50, Non-Small Cell Lung): ≥ 100000 nM
